The numbers were not newly measured in patent US20170273925A1 (Cumberland Pharmaceuticals Inc., priority 2014, published 2017), which cites them from elsewhere.

As to `CC(C)Cc1ccc(C(C)C(=O)O)cc1` (stereo not shown) [ibuprofen, 2-(4-isobutylphenyl) propionic acid], the Solubility in water entry is reported as “very poorly soluble in water”.
